Data published in patent US20160060260A1, “BROMODOMAIN INHIBITORS FOR TREATING DISEASE” (Board of Regents, The University of Texas System, priority 2014, published 2016).

Each molecule was assayed against T1, Recombinant human His-tagged Trim24-PHD-bromodomain (Homo sapiens, UniProt O15164) (assay: Trim24 AlphaScreen Assay). Details: 5 nM Trim24 protein, 15 nM biotinylated H3K23ac (1-33aa) peptide.
T1 construct: Recombinant human His-tagged Trim24-PHD-bromodomain (produced in-house); made in house
T1 sequence (O15164 824-1006 limits assumed): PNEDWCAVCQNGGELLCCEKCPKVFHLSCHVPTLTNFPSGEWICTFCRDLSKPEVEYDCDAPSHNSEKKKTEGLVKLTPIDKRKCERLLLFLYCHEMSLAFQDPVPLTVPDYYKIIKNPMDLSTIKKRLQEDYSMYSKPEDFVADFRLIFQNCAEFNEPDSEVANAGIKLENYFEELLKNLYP
Assay type: binding
Description: Recombinant human His-tagged Trim24-PHD-bromodomain (produced in-house), biotinylated H3K23ac (1-33aa) peptide (AnaSpec, Inc.), and test compound were added to a 384-well OptiPlate (Perkin Elmer) and incubated at room temperature for one hour. The assay buffer consisted of 50 mM Hepes, pH 7.5, 100 mM NaCl, and 0.12 mM Triton X-100.
Streptavidin donor beads and nickel chelate acceptor beads, both from a Perkin Elmer AlphaScreen Histidine Detection Kit, were then added to the Optiplate to a final concentration of 10 ug/mL each. Following a 2 hour incubation at room temperature, the microplate was read on an Envision Plate Reader (Perkin Elmer). Percent of control (POC) values were calculated from the following formula:
POC=[sample signal-average background signal]/[average maximum signal−average background signal]*100
The average maximum signal was obtained from wells containing all assay components except test compound. The average background signal pertained to wells with all assay components except Trim24 and test compound. IC50 values were calculated using a four-parameter logistic curve fit.

Row | IC50 [µM] | Compound
1 | 0.01 to 0.1 | C=C(C)COc1cccc(Oc2cc3c(cc2NS(=O)(=O)c2cn(C)cn2)n(C)c(=O)n3C)c1 [Example 70, N-(1,3-dimethyl-6-(3-((2-methylallyl)oxy)phenoxy)-2-oxo-2,3-dihydro-H-benzo[d]imidazol-5-yl)-1-methyl-1H-imidazole-4-sulfonamide]
2 | 0.1 to 1 | CCCOc1cc(OCCCCCCN)cc(Oc2cc3c(cc2N(C)S(=O)(=O)c2ccc(OC)c(OC)c2)n(C)c(=O)n3C)c1 [Example 245, N-(6-(3-((6-aminohexyl)oxy)-5-propoxyphenoxy)-1,3-dimethyl-2-oxo-2,3-dihydro-1H-benzo[d]imidazol-5-yl)-3,4-dimethoxy-N-methylbenzenesulfonamide]
3 | 0.1 to 1 | Cn1cnc(S(=O)(=O)Nc2cc3c(cc2Oc2cccc(OCC(C)(O)CO)c2)n(C)c(=O)n3C)c1 (stereo not drawn) [Example 231, N-{6-[3-(2,3-dihydroxy-2-methylpropoxy)phenoxy]-1,3-dimethyl-2-oxo-2,3-dihydro-1H-1,3-benzodiazol-5-yl}-1-methyl-1H-imidazole-4-sulfonamide]
4 | 0.01 to 0.1 | CCCOc1cccc(Oc2cc3c(cc2NS(=O)(=O)c2ccc(OC)c(NC(C)=O)c2)n(C)c(=O)n3C)c1 [Example 174, N-(5-(N-(1,3-dimethyl-2-oxo-6-(3-propoxyphenoxy)-2,3-dihydro-1H-benzo[d]imidazol-5-yl)sulfamoyl)-methoxyphenyl)acetamide]
5 | 0.01 to 0.1 | COCCCOc1cc(OCCCOC)cc(Oc2cc3c(cc2NS(=O)(=O)c2ccc(OC)c(OC)c2)n(C)c(=O)n3C)c1 [Example 122, N-(6-(3,5-bis(3-methoxypropoxy)phenoxy)-1,3-dimethyl-2-oxo-2,3-dihydro-1H-benzo[d]imidazol-5-yl)-3,4-dimethoxybenzenesulfonamide]
6 | 0.01 to 0.1 | COc1ccc(S(=O)(=O)Nc2cc3c(cc2Oc2cccc(OCC(F)(F)F)c2)n(C)c(=O)n3C)cc1OC [Example 184, N-(1,3-dimethyl-2-oxo-6-(3-(2,2,2-trifluoroethoxy)phenoxy)-2,3-dihydro-1H-benzo[d]imidazol-5-yl)-3,4-dimethoxybenzenesulfonamide]
7 | > 1 | COCCS(=O)(=O)Nc1cc2c(cc1Oc1cccc(OCc3ccccc3)c1)n(C)c(=O)n2C [Example 27, N-(6-(3-(benzyloxy)phenoxy)-1,3-dimethyl-2-oxo-2,3-dihydro-1H-benzo[d]imidazol-5-yl)-2-methoxyethane-1-sulfonamide]
8 | 0.1 to 1 | CCCOc1cc(OCCCOC)cc(Oc2cc3c(cc2NS(=O)(=O)c2ccc(OCC)c(C)c2)n(C)c(=O)n3C)c1 [Example 161, 4-ehoxy-N-(6-(3-(3-methoxypropoxy)-5-propoxyphenoxy)-1,3-dimethyl-2-oxo-2,3-dihydro-benzo[d]imidazol-5-yl)-3-methylbenzenesulfonamide]
9 | > 1 | Cn1c(=O)n(C)c2cc(Oc3cccc(OCc4ccccc4)c3)c(NS(=O)(=O)C3CC3)cc21 [Example 12, N-(6-(3-(benzyloxy)phenoxy)-1,3-dimethyl-2-oxo-2,3-dihydro-1H-benzo[d]imidazol-5-yl)cyclopropanesulfonamide]
10 | > 1 | Cn1c(=O)n(C)c2cc(Oc3cccc(OCc4ccccc4)c3)c(NS(=O)(=O)c3cccc(Br)c3)cc21 [Example 38, N-(6-(3-(benzyloxy)phenoxy)-1,3-dimethyl-2-oxo-2,3-dihydro-1H-benzo[d]imidazol-5-yl)-3-bromobenzenesulfonamide]
11 | 0.01 to 0.1 | CCCOc1cccc(Oc2cc3c(cc2NS(=O)(=O)c2c(C)n[nH]c2C)n(C)c(=O)n3C)c1 [Example 92, N-(1,3-dimethyl-2-oxo-6-(3-propoxyphenoxy)-2,3-dihydro-1H-benzo[d]imidazol-5-yl)-3,5-dimethyl-1H-pyrazole-4-sulfonamide]
12 | 0.01 to 0.1 | CCCOc1cc(OCCCCCCO)cc(Oc2cc3c(cc2NS(=O)(=O)c2cn(C)cn2)n(C)c(=O)n3C)c1 [Example 181, N-(6-(3-((6-hydroxyhexyl)oxy)-5-propoxyphenoxy)-1,3-dimethyl-2-oxo-2,3-dihydro-1H-benzo[d]imidazol-5-yl)-1-methyl-1H-imidazole-4-sulfonamide]
13 | 0.1 to 1 | CCCOc1cccc(Oc2cc3c(cc2NS(=O)(=O)c2cccc(N(C)C)c2)n(C)c(=O)n3C)c1 [Example 173, N-(1,3-dimethyl-2-oxo-6-(3-propoxyphenoxy)-2,3-dihydro-1H-benzo[d]imidazol-5-yl)-3-(dimethylamino)benzenesulfonamide]
14 | 0.001 to 0.01 | Cn1c(=O)n(C)c2cc(Oc3cc(OCCCCCCN)cc(OCC(F)(F)F)c3)c(NS(=O)(=O)c3cccnc3)cc21 [Example 201, N-(6-(3-((6-aminohexyl)oxy)-5-(2,2,2-trifluoroethoxy)phenoxy)-1,3-dimethyl-2-oxo-2,3-dihydro-1H-benzo[d]imidazol-5-yl)pyridine-3-sulfonamide]
15 | 0.01 to 0.1 | CCCOc1cccc(Oc2cc3c(cc2NS(=O)(=O)c2cnn(C)c2C)n(C)c(=O)n3C)c1 [Example 91, N-(1,3-dimethyl-2-oxo-6-(3-propoxyphenoxy)-2,3-dihydro-1H-benzo[d]imidazol-5-yl)-1,5-dimethyl-1H-pyrazole-4-sulfonamide]
16 | 0.01 to 0.1 | CCCOc1cc(OCCCCCCN)cc(Oc2cc3c(cc2NS(=O)(=O)c2ccc(OC)c(OC)c2)n(C)c(=O)n3C)c1 [Example 7, N-(6-{3-[(6-aminohexyl)oxy]-5-propoxyphenoxy}-1,3-dimethyl-2-oxo-2,3-dihydro-1H-1,3-benzodiazol-5-yl)-3,4-dimethoxybenzene-1-sulfonamide]
17 | 0.1 to 1 | Cn1cnc(S(=O)(=O)Nc2cc3c(cc2Oc2cccc(OCc4ccncc4)c2)n(C)c(=O)n3C)c1 [Example 30, N-(1,3-dimethyl-2-oxo-6-(3-(pyridin-4-ylmethoxy)phenoxy)-2,3-dihydro-1H-benzo[d]imidazol-5-yl)-1-methyl-1H-imidazole-4-sulfonamide]
18 | > 1 | Cn1c(=O)n(C)c2cc(Oc3cccc(OCc4ccccc4)c3)c(NS(=O)(=O)CCO)cc21 [Example 81, N-(6-(3-(benzyloxy)phenoxy)-1,3-dimethyl-2-oxo-2,3-dihydro-1H-benzo[d]imidazol-5-yl)-2-hydroxyethane-1-sulfonamide]
19 | 0.01 to 0.1 | CCCOc1cc(OCCCCCCNC(C)=O)cc(Oc2cc3c(cc2NS(=O)(=O)c2cn(C)cn2)n(C)c(=O)n3C)c1 [Example 242, N-(6-(3-((1,3-dimethyl-6-(1-methyl-1H-imidazole-4-sulfonamido)-2-oxo-2,3-dihydro-1H-benzo[d]imidazol-5-yl)oxy)-5-propoxyphenoxy)hexyl)acetamide]
20 | 0.01 to 0.1 | Cc1nc(S(=O)(=O)Nc2cc3c(cc2Oc2cccc(OCC4CC4)c2)n(C)c(=O)n3C)cn1C [Example 58, N-(6-(3-(cyclopropylmethoxy)phenoxy)-1,3-dimethyl-2-oxo-2,3-dihydro-1H-benzo[d]imidazol-5-yl)-1,2-dimethyl-1H-imidazole-4-sulfonamide]
21 | 0.01 to 0.1 | Cc1c(S(=O)(=O)Nc2cc3c(cc2Oc2cccc(OCC4CC4)c2)n(C)c(=O)n3C)cnn1C [Example 102, N-(6-(3-(cyclopropylmethoxy)phenoxy)-1,3-dimethyl-2-oxo-2,3-dihydro-1H-benzo[d]imidazol-5-yl)-1,5-dimethyl-1H-pyrazole-4-sulfonamide]
22 | 0.01 to 0.1 | COc1ccc(S(=O)(=O)Nc2cc3c(cc2Oc2cc(OCCCCCCN)cc(OCC(F)(F)F)c2)n(C)c(=O)n3C)cc1OC [Example 194, N-(6-(3-((6-aminohexyl)oxy)-5-(2,2,2-trifluoroethoxy)phenoxy)-1,3-dimethyl-2-oxo-2,3-dihydro-1H-benzo[d]imidazol-5-yl)-3,4-dimethoxybenzenesulfonamide]
23 | 0.01 to 0.1 | CCCOc1cc(OCCCOC)cc(Oc2cc3c(cc2NS(=O)(=O)c2cn(CC(C)C)cn2)n(C)c(=O)n3C)c1 [Example 147, 1-isobutyl-N-(6-(3-(3-methoxypropoxy)-5-propoxyphenoxy)-1,3-dimethyl-2-oxo-2,3-dihydro-1H-benzo[d]imidazol-5-yl)-1H-imidazole-4-sulfonamide]
24 | > 1 | Cn1c(=O)n(C)c2cc(Oc3cccc(OCc4ccccc4)c3)c(NS(C)(=O)=O)cc21 [Example 11]
25 | 0.01 to 0.1 | COc1ccc(S(=O)(=O)Nc2cc3c(cc2Oc2cccc(OCC(F)(F)F)c2)n(C)c(=O)n3C)cn1 [Example 221, N-(1,3-dimethyl-2-oxo-6-(3-(2,2,2-trifluoroethoxy)phenoxy)-2,3-dihydro-1H-benzo[d]imidazol-5-yl)-6-methoxypyridine-3-sulfonamide]
26 | 0.01 to 0.1 | CCCOc1cc(OCCCOC)cc(Oc2cc3c(cc2NS(=O)(=O)c2cn(C)c(Cl)n2)n(C)c(=O)n3C)c1 [Example 149, 2-chloro-N-(6-(3-(3-methoxypropoxy)-5-propoxyphenoxy)-1,3-dimethyl-2-oxo-2,3-dihydro-1H-benzo[d]imidazol-5-yl)-1-methyl-1H-imidazole-4-sulfonamide]

Row | Compound | IC50 [µM]
27 | Cc1c(S(=O)(=O)Nc2cc3c(cc2Oc2cc(OCCCCN)cc(OCC(F)(F)F)c2)n(C)c(=O)n3C)cnn1C [Example 209, N-(6-(3-(4-aminobutoxy)-5-(2,2,2-trifluoroethoxy)phenoxy)-1,3-dimethyl-2-oxo-2,3-dihydro-1H-benzo[d]imidazol-5-yl)-1,5-dimethyl-1H-pyrazole-4-sulfonamide] | 0.001 to 0.01
